In patent publication US20180353462A1, “[…] AGENTS […] FLAVONOID DERIVATIVES TARGETING KINASES, SIRTUINS AND ONCOGENIC AGENTS FOR THE TREATMENT OF CANCERS” (priority 2015, published 2018):

Assays:
Details in all cases: Table 1 kinase panel
CK2a = target: T1, CK2a (Homo sapiens, UniProt P68400); experiment: Kinase competition binding assay, CK2a
T1 construct: made in house
Description: (§1) Cannabis flavonoids and their analogs were subjected to kinase inhibition assay. The compounds were first screened at a single concentration of 10 μM in the primary assay. […]. To determine the kd or IC50 values, competition binding assays were established, authenticated and executed as described previously. Fabian et al., “A Small Molecule-Kinase Interaction Map For Clinical Kinase Inhibitors.”, Nat Biotechnol, 23(3):329-36, Epub (2005). See also, Karaman et al., “A Quantitative Analysis Of Kinase Inhibitor Selectivity”, Nat. Biotechnol. […] For most assays, kinases were fused to T7 phage strains (Fabian, supra) and for the other assays, kinases were produced in HEK-293 cells after which they were tagged with DNA for quantitative PCR detection. In general, full-length constructs were used for small, single domain kinases, and catalytic domain constructs for large multi-domain kinases. The binding assays utilized streptavidin-coated magnetic beads treated with biotinylated small molecule ligands for 30 minutes at room temperature which generated affinity resins for the kinase assays. The liganded beads were blocked with excess biotin and washed with blocking buffer (SeaBlock (Pierce), 1% BSA, 0.05% Tween 20, 1 mM DTT) to remove unbound ligand and to reduce non-specific phage binding. […] Test compounds were prepared as 40× stocks in 100% DMSO and diluted directly into the assay (Final DMSO concentration=2.5%). All reactions were performed in polypropylene 384-well plates in a final volume of 0.04 ml. […] The beads were then re-suspended in elution buffer (1×PBS, 0.05% Tween 20, 0.5 μM non-biotinylated affinity ligand) and incubated at room temperature with shaking for 30 minutes. The kinase concentration in the eluates was measured by quantitative PCR. An illustration of the kinase interaction process is presented below. Kd/IC50 values were determined using a standard dose response curve using the hill equation. Curves were fitted using a non-linear least square fit with the Levenberg-Marquardt algorithm.
(§2) The compound(s) were screened at 10 μM and results for primary screen binding interactions are reported as ‘% Ctrl’, where lower numbers indicate stronger hits in the matrix.

CK2a2 = target: T2, CK2a2 (Homo sapiens, UniProt P19784); experiment: Kinase competition binding assay, CK2a2
T2 construct: made in house
Description: as §1, §2

c-Kit(D820Y) = target: T3, c-Kit(D820Y) (Homo sapiens, UniProt P10721, D820Y); experiment: Kinase competition binding assay, c-Kit(D820Y)
T3 construct: made in house
Description: as §1, §2

DYRK1/DYRK1A = target: T4, DYRK1/DYRK1A (Homo sapiens, UniProt Q13627); experiment: Kinase competition binding assay, DYRK1/DYRK1A
T4 construct: made in house
Description: as §1, §2

FLT4(VEGFR3) = target: T5, FLT4(VEGFR3) (Homo sapiens, UniProt P35916); experiment: Kinase competition binding assay, FLT4(VEGFR3)
T5 construct: made in house
Description: as §1, §2

JAK3 = target: T6, JAK3 (Homo sapiens, UniProt P52333); experiment: Kinase competition binding assay, JAK3
T6 construct: made in house
T6 sequence (P52333 1-1124): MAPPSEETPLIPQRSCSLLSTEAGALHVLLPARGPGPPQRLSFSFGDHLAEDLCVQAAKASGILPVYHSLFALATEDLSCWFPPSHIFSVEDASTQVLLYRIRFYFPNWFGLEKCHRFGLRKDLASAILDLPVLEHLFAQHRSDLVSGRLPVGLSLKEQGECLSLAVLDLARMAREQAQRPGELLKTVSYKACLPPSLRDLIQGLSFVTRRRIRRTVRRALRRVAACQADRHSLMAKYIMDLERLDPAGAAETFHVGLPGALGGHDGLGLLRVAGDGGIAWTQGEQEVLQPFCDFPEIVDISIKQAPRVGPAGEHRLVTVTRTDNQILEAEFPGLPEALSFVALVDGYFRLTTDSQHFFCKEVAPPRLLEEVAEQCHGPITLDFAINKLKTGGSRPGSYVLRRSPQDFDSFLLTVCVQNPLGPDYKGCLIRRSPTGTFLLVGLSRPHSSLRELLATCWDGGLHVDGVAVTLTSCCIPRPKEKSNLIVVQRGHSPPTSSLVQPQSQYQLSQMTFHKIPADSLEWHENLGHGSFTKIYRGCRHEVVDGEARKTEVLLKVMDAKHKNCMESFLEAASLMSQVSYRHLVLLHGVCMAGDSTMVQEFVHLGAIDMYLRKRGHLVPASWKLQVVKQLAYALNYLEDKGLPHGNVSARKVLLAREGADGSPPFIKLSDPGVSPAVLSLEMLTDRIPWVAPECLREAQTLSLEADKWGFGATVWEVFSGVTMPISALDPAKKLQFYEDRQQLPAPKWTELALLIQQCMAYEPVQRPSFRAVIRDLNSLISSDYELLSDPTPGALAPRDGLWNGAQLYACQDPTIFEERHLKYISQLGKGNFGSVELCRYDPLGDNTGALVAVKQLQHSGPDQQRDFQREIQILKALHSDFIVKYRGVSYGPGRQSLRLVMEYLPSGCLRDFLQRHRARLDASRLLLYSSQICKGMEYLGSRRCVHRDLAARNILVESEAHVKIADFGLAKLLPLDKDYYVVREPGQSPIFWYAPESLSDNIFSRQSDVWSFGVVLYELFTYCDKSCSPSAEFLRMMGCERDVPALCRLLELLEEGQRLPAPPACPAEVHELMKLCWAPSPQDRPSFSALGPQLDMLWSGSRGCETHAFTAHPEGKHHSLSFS
Description: as §1, §2

KIT = target: T7, KIT (Homo sapiens, UniProt P10721); experiment: Kinase competition binding assay, KIT
T7 construct: made in house
Description: as §1, §2

KIT(V559D) = target: T8, KIT(V559D) (Homo sapiens, UniProt P10721, V559D); experiment: Kinase competition binding assay, KIT(V559D)
T8 construct: made in house
Description: as §1, §2

PASK = target: T9, PASK (Homo sapiens, UniProt Q96RG2); experiment: Kinase competition binding assay, PASK
T9 construct: made in house
Description: as §1, §2

PIM-3 = target: T10, PIM-3 (Homo sapiens, UniProt Q86V86); experiment: Kinase competition binding assay, PIM-3
T10 construct: full-length constructs were used for small, single domain kinases; T7 phage fusion (most assays) or DNA tag for qPCR (HEK-293-made kinases); made in house
Description: as §1, §2

PDGFRa = target: T11, PDGFRa (Homo sapiens, UniProt P16234); experiment: Kinase competition binding assay, PDGFRa
T11 construct: catalytic domain constructs for large multi-domain kinases; T7 phage fusion (most assays) or DNA tag for qPCR (HEK-293-made kinases); made in house
Description: Cannabis flavonoids and their analogs were subjected to kinase inhibition assay. The compounds were first screened at a single concentration of 10 μM in the primary assay. […]. To determine the kd or IC50 values, competition binding assays were established, authenticated and executed as described previously. Fabian et al., “A Small Molecule-Kinase Interaction Map For Clinical Kinase Inhibitors.”, Nat Biotechnol, 23(3):329-36, Epub (2005). See also, Karaman et al., “A Quantitative Analysis Of Kinase Inhibitor Selectivity”, Nat. Biotechnol. […] For most assays, kinases were fused to T7 phage strains (Fabian, supra) and for the other assays, kinases were produced in HEK-293 cells after which they were tagged with DNA for quantitative PCR detection. In general, full-length constructs were used for small, single domain kinases, and catalytic domain constructs for large multi-domain kinases. The binding assays utilized streptavidin-coated magnetic beads treated with biotinylated small molecule ligands for 30 minutes at room temperature which generated affinity resins for the kinase assays. The liganded beads were blocked with excess biotin and washed with blocking buffer (SeaBlock (Pierce), 1% BSA, 0.05% Tween 20, 1 mM DTT) to remove unbound ligand and to reduce non-specific phage binding. […] Test compounds were prepared as 40× stocks in 100% DMSO and diluted directly into the assay (Final DMSO concentration=2.5%). All reactions were performed in polypropylene 384-well plates in a final volume of 0.04 ml. […] The beads were then re-suspended in elution buffer (1×PBS, 0.05% Tween 20, 0.5 μM non-biotinylated affinity ligand) and incubated at room temperature with shaking for 30 minutes. The kinase concentration in the eluates was measured by quantitative PCR. An illustration of the kinase interaction process is presented below. Kd/IC50 values were determined using a standard dose response curve using the hill equation. Curves were fitted using a non-linear least square fit with the Levenberg-Marquardt algorithm. […]

SMILES | IC50 (CK2a) [nM] | IC50 (CK2a2) [nM] | IC50 (c-Kit(D820Y)) [nM] | IC50 (DYRK1/DYRK1A) [nM] | IC50 (FLT4(VEGFR3)) [nM] | IC50 (JAK3) [nM] | IC50 (KIT) [nM] | IC50 (KIT(V559D)) [nM] | IC50 (PASK) [nM] | IC50 (PIM-3) [nM] | IC50 (PDGFRa) [nM]
COc1cc(-c2cc(=O)c3c(O)c(C/C=C(\C)CCC=C(C)C)c(O)cc3o2)ccc1O [FBL-03A] | 740 | 350 | > 20000 | > 20000 | 330 | > 20000 | 350 | 200 | > 20000 | > 20000 | 
COc1cc(-c2cc(=O)c3c(O)c(CC=C(C)C)c(O)cc3o2)ccc1O [FBL-03B] | 768 | 477 | 1280 | < 1000 | 9.3 | > 1000 | < 1000 | < 1000 | 2060 | 173 | 982
COc1cc(-c2cc(=O)c3c(O)cc(O)c(C/C=C(\C)CCC=C(C)C)c3o2)ccc1O [FBL-03C] | 58 | 19 | > 20000 | 620 | > 20000 | 780 | > 1000 | > 1000 | > 20000 | > 1000 | 
COc1ccc(-c2cc(=O)c3c(O)c(C/C=C(\C)CCC=C(C)C)c(O)cc3o2)cc1OC [FBL-03D] | > 30000 | > 30000 | > 30000 | > 30000 | > 30000 | > 30000 | > 30000 | > 30000 | > 30000 | > 30000 | > 30000
COc1cc(-c2cc(=O)c3c(O)cc(O)c(CC=C(C)C)c3o2)ccc1O [FBL-03G] | 38 | 9.7 | 113 | 36 | 4220 | > 20000 | < 1000 | < 1000 | 116 | 35 | 5920
